According to patent US20090275503A1, “DIASTEREOMERIC PEPTIDES FOR MODULATING T CELL IMMUNITY” (Yeda Research and Developent Co., Ltd. at the Weizman …, priority 2005, published 2009):
Non-standard residues stand in square brackets, D forms with d. Residues, ends and D or L forms follow the SMILES beside them. No end group written: not given here.

Tests used:
[1] = test system: LNC from Mt-immunized rats; test: T-cell proliferation of LNC or A2b T cell line (Part B, amidated peptides); assay type: cell-based, rat; conditions: for Inhibition of T-cell proliferative responses to PPD and to Mt176-90: amidated peptides, LNC, 72 hr
Lewis rats [2] = test: Delayed type hypersensitivity (DTH) to PPD in AA rats (Part B); assay type: in vivo, rat; conditions: 16 days after AA induction
Description: (§1) Twenty μl of PPD (0.5 mg/ml in PBS) were injected intradermally into the pinna of the right ear on day 16 after AA induction; 20 μl of sterile PBS were injected in the left ear as control. The thickness of the ear was measured 48 hr later using a vernier caliper and expressed as the difference between the right and the left ear.
The activity of the T cells that mediate AA can also be detected in vivo by studying the delayed type hypersensitivity (DTH) response to PPD. We studied the DTH response to PPD 16 days after AA induction in rats treated with the three peptides.

cells = test: Cytotoxicity when incubated with cells (Part B); assay type: cell-based, rat
Lewis rats [3] = test: Adjuvant arthritis (AA) in Lewis rats (Part B); assay type: in vivo, rat; conditions: for Mean maximum AA score: 100 μg amidated peptide per rat at AA induction, maximum possible score 16; for Effect on adjuvant arthritis (clinical score and ankle swelling): 100 μg amidated peptide per rat with the antigen at AA induction
Description: (§2) To test the effect of CP on T-cell activation in vivo, we used AA as a model system. AA was induced by injecting 50 μl of Mt suspended in IFA (0.5 mg/ml) at the base of the tail. At the time of AA induction, each rat also received 100 μg of L-CP, D-CP or 2G CP control peptide (or PBS) dissolved in 50 μl of IFA and mixed with Mt/IFA used to induce AA. The day of AA induction was designated as day 0. Disease severity was assessed by direct observation of all 4 limbs in each animal. A relative score between 0 and 4 was assigned to each limb, based on the degree of joint inflammation, redness and deformity; thus the maximum possible score for an individual animal was 16. The mean AA score (±SEM) is shown for each experimental group. Arthritis was also quantified by measuring hind limb diameter with a caliper. Measurements were taken on the day of the induction of AA and 26 days later (at the peak of AA); the results are presented as the mean±SEM of the difference between the two values for all the animals in each group. The person who scored the disease was blinded to the identity of the groups.
To test the inhibitory effects of CP on the activation of specific T cells in vivo, we used the adjuvant arthritis (AA) model. Immunization of Lewis rats with Mt in oil triggers AA, an experimental autoimmune disease driven by Mt-specific T cells cross-reactive with self-antigens. Mt176-90-specific T cells are detectable upon induction of AA; indeed the A2b T-cell clone cross-reacts with cartilage and mediates AA. Since L and D-CP inhibited the T-cell response of primed LNC and of clone A2b to PPD and […] in vitro (FIG. 9), we also investigated the effects of L- or D-CP on the in vivo activation of the T cells that drive AA. […] The mean maximum score was 12±0.3 in the control-treated rats, compared with 6±0.7 in the D-CP-treated rats and 7.3±0.7 in the L-CP-treated rats (p<0.05 for the L and D-CP groups compared to the control groups).

BALB/c mice = test: Delayed type hypersensitivity to oxazalone in mice; assay type: in vivo, mouse; conditions: topical treatment 1 hr after oxazalone challenge; peptides 150 μg (6 mg/kg) in DMSO; measured following day
Description: Groups of 5 female inbred BALB/c mice (The Jackson Laboratory) were sensitized on the shaved abdominal skin with 100 μl of 2% Oxazalone dissolved in acetone/olive oil [4:1 (vol/vol)] applied topically. DTH sensitivity was elicited 5 days later by challenging the mice with 20 μl of 0.5% Oxazalone in acetone/olive oil, 10 μl administered topically to each side of the ear. A constant area of the ear was measured immediately before challenge and 24 h after challenge with a Mitutoyo engineer's micrometer. The individual measuring ear swelling was unaware of the identity of the groups of mice. The DTH reaction is presented as the increment of ear swelling after challenge expressed as the mean±SEM in units of 10-2 mm. One hour after the challenge the mice's ears were treated topically with either all-L CP or with 2D-CP, both dissolved in 40 μl DMSO. The activity of the peptide treatments was compared to treatment with DMSO alone for “untreated mice” and Dexamethasone (100 μg/ml in saline) as a positive control.
To test whether TCR trans-membrane peptides could inhibit the elicitation of existing DTH reactivity, groups of naïve BALB/c mice were sensitized to 2% oxazalone. Five days later, the mice were challenged with 0.5% oxazalone administered to the ear. An hour after the challenge, the mice were treated with Dimethylsulfoxide (DMSO), all-L CP 150 μg (6 mg/kg) in DMSO, 2D-CP 150 μg (6 mg/kg) in DMSO, or dexamethasone, applied topically. On the following day, ear thickness was measured the swelling of DMSO treated mice (0.33±0.01 mm) was compared to that of mice treated with all-L CP (0.30±0.01 mm), 2D-CP (0.27±0.01 mm) and Dexamethasone (0.15±0.02 mm). […] Thus, 2D-CP can inhibit a T-cell mediated immune reaction in subjects already sensitized to the antigen.

target cells = test: Cytotoxic effect on the target cells (Part A); conditions: incubated with the target cells
rat TCR = test: Co-immunoprecipitation of fluorescence-labeled peptides with TCR molecules; assay type: binding; conditions: Rho-labeled peptides
Description: Activated A2b T cells (2×10^6) were cultured for 1 hr at 37° C. in the presence of CP or 2D-CP (25 μg/ml), or 2G-CP, and lysed for 15 min on ice in 0.1 ml lysis buffer (Adachi et al., 1996). Insoluble material was removed by centrifugation at 10.000 g for 10 min at 4° C. The lysate was then incubated overnight with Protein A-plus Agarose beads (Santa Cruz Biotechnology Inc., Santa Cruz, Calif., USA) bound to antibodies to the rat TCR or MHC class 1. The antibodies reactive against the rat TCR (clone R73) or HSP60 (clone LKI) were purified from the respective hybridomas at our lab; antibodies to rat CD28, actin and the rat MHC class 1 were purchased from Serotec (Oxford, UK). After an overnight incubation at 4° C., the beads were washed with lysis buffer, boiled for 10 minutes and the protein supernatant run in a 4-20% SDS-PAGE. The presence of co-immunoprecipitated peptide was detected by the Typhoon 9400 variable mode imager.
Next, co-immunoprecipitation experiments were performed. The affinity of the TCR/CP, the TCR/2D-CP and TCR/2G-CP interactions were compared by performing a series of co-precipitation experiments using different concentrations of Rho-labeled CP, 2D-CP and 2G-CP peptides.

LNC from Mt primed rats = test: T-cell proliferation of LNC from Mt-immunized rats activated with PPD or Mt176-90 (Part A); assay type: cell-based, rat; conditions: LNC, 72 hr, 3H-thymidine incorporation
Lewis rats [4] = test: Delayed type hypersensitivity to PPD in AA rats (Part A); assay type: in vivo, rat; conditions: 16 days after AA induction, ear thickness 48 hr after PPD
Description: as §1, with “right ear of each rat on day” for “right ear on day”, “the left ear (Quintana et al., 2005).” for “the left ear.”

Lewis rats [5] = test: Adjuvant arthritis (AA) in Lewis rats (Part A); assay type: in vivo, rat
Description: as §2, with “the experimental T-cell mediated autoimmune disease adjuvant arthritis (AA) was used.” for “we used AA as a model system.”, “(10” for “(0.5”, “all-L CP, 2D-CP” for “L-CP, D-CP”, “16 (Quintana et al., 2002).” for “16.”
Next, the contribution of the secondary structure and the side-chains to the inhibitory effects of CP on T cell activation In vivo was analyzed, using the experimental autoimmune disease Adjuvant Arthritis (AA). Immunization of Lewis rats with Mt triggers AA, an autoimmune disease driven by Mt-specific T cells that cross-react with self-antigen (Holoshitz et al., 1984; Holoshitz et al., 1983). PPD and Mt176-90 are targeted by the arthritogenic T-cell response (Anderton et al., 1994); indeed immunomodulatory therapies that inhibit the progression of arthritis have been associated with a decreased T cell response to PPD and Mt176-90 and with a diminished delayed type hypersensitivity (DTH) response to PPD (van Eden et al., 1985).

For `CC[C@@H](C)[C@@H](NC(=O)[C@@H](CCCNC(=N)N)NC(=O)[C@@H](CC(C)C)NC(=O)CN)C(=O)N[C@H](CC(C)C)C(=O)N[C@H](CC(C)C)C(=O)N[C@H](CC(C)C)C(=O)N[C@H](CCCCN)C(=O)N[C@@H](C(N)=O)C(C)C` [D-CP, X-GLRILLLKV-NH2] (H-G[dL][dR][dI][dL][dL][dL][dK][dV]-NH2), the “Inhibition of T-cell proliferative responses to PPD and to Mt176-90” value [1] was “inhibited the T-cell proliferative responses to PPD and to Mt176-90 in a dose-dependent manner”, the “Inhibition of T-cell proliferation compared with L-CP” value ([1]; at the lower concentrations) was “consistently higher” and the “Reduction in the DTH response to PPD” value (Lewis rats [2]) was 48%. The Cytotoxicity (cells) was “showed no cytotoxicity”, the “Mean maximum AA score” value (Lewis rats [3]) was 6±0.7 and the “Effect on adjuvant arthritis (clinical score and ankle swelling)” value (Lewis rats [3]) was “significantly milder arthritis”.

With `C[C@@H]1C[C@H]2[C@@H]3CCC4=CC(=O)C=C[C@]4(C)[C@@]3(F)[C@@H](O)C[C@]2(C)[C@@]1(O)C(=O)CO` [Dexamethasone, reference compound] the Ear swelling (BALB/c mice) was 0.15±0.02 mm.

For “GLRILLLKV [all-L CP] (GLRILLLKV-NH2; listed as Homo sapiens) [wild-type core peptide derived from murine TCRα transmembrane domain, reference compound]”, the Cytotoxic effect (target cells) was “None of the peptides (all-L CP, 2D-CP or 2G CP) had a cytotoxic effect”, the “Co-precipitation with the TCR” value (rat TCR; activated A2b T cells) was “can be co-precipitated with the TCR” and the “Affinity of TCR interaction compared with TCR/2D-CP” value (rat TCR; different concentrations) was “higher affinity”. The “Inhibition of T-cell proliferation to PPD and to Mt176-90” value (LNC from Mt primed rats) was “inhibited T-cell proliferation to PPD and to Mt176-90 in a dose-dependent manner”, the Ear swelling (BALB/c mice) was 0.30±0.01 mm and the “Reduction in the DTH response to PPD” value (Lewis rats [4]) was 39%. For the same molecule, the “Mean maximum AA score” value (Lewis rats [5]; 100 μg peptide per rat at AA induction, maximum possible score 16) was 7.7±0.7 and the “Effect on adjuvant arthritis (clinical score and paw swelling)” value (Lewis rats [5]; 100 μg peptide per rat with Mt at the time of AA induction) was “significantly milder arthritis”.

For “GLRILLLKV-NH2 [L-CP, X-GLRILLLKV-NH2, reference compound]”, the “Inhibition of T-cell proliferative responses to PPD and to Mt176-90” value [1] was “inhibited the T-cell proliferative responses to PPD and to Mt176-90 in a dose-dependent manner”, the “Reduction in the DTH response to PPD” value (Lewis rats [2]) was 39% and the Cytotoxicity (cells) was “showed no cytotoxicity”. For the same molecule, the “Mean maximum AA score” value (Lewis rats [3]) was 7.3±0.7 and the “Effect on adjuvant arthritis (clinical score and ankle swelling)” value (Lewis rats [3]) was “significantly milder arthritis”.
